{"source": "PubChem BioAssay AID2060327", "about": "(Molecular Pharmacology Branch, DTP, NCI, 2025)", "system": "PC-3 multi-cell spheroids, viability", "test": "Anticancer human tumor PC-3 cell line growth inhibition [IpAb];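 as to all read-outs here: spheroids exposed to compounds for 7 days before readout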;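 as to viability, T/C: 100% = DMSO vehicle control wells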", "settings": "for IC50: curve of first compound; for viability, T/C: stronger effect = lower value", "summary_of_the_method": "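Spheroids of 60% malignant cells, 25% HUVEC and 15% MSC were exposed to targeted agents combined with ipatasertib or abemaciclib. Doses started at or near clinical Cmax (10 microM when unknown) and fell in half-log steps.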"}
{"smiles": "Cn1ncc(Cl)c1-c1cc(C(=O)NC(CN)Cc2cccc(F)c2)sc1Cl", "note": "(stereo not given) + CCN1CCN(Cc2ccc(Nc3ncc(F)c(-c4cc(F)c5nc(C)n(C(C)C)c5c4)n3)nc2)CC1", "values": [{"measurement": "IC50", "setting": "second compound 0.01 µM", "result": 0.127, "unit": "µM"}, {"measurement": "IC50", "setting": "second compound 0.0316 µM", "result": 0.101, "unit": "µM"}, {"measurement": "IC50", "setting": "second compound 0.1 µM", "result": 0.0629, "unit": "µM"}, {"measurement": "IC50", "setting": "second compound 0.316 µM", "result": 0.0526, "unit": "µM"}, {"measurement": "IC50", "setting": "second compound 1 µM", "result": "< 0.0316", "unit": "µM"}, {"measurement": "viability, T/C", "setting": "second compound 0.01 µM, first compound 0.0316 µM", "result": 70.5, "unit": "%"}, {"measurement": "viability, T/C", "setting": "second compound 0.01 µM, first compound 0.1 µM", "result": 55.3, "unit": "%"}, {"measurement": "viability, T/C", "setting": "second compound 0.01 µM, first compound 0.316 µM", "result": 35.8, "unit": "%"}, {"measurement": "viability, T/C", "setting": "second compound 0.01 µM, first compound 1 µM", "result": 17.5, "unit": "%"}, {"measurement": "viability, T/C", "setting": "second compound 0.01 µM, first compound 3.16 µM", "result": 15.5, "unit": "%"}, {"measurement": "viability, T/C", "setting": "second compound 0.01 µM, first compound 10 µM", "result": 0.14, "unit": "%"}, {"measurement": "viability, T/C", "setting": "second compound 0.0316 µM, first compound 0.0316 µM", "result": 57.2, "unit": "%"}, {"measurement": "viability, T/C", "setting": "second compound 0.0316 µM, first compound 0.1 µM", "result": 53, "unit": "%"}, {"measurement": "viability, T/C", "setting": "second compound 0.0316 µM, first compound 0.316 µM", "result": 26.9, "unit": "%"}, {"measurement": "viability, T/C", "setting": "second compound 0.0316 µM, first compound 1 µM", "result": 13.8, "unit": "%"}, {"measurement": "viability, T/C", "setting": "second compound 0.0316 µM, first compound 3.16 µM", "result": 13.8, "unit": "%"}, {"measurement": "viability, T/C", "setting": "second compound 0.0316 µM, first compound 10 µM", "result": 0.1, "unit": "%"}, {"measurement": "viability, T/C", "setting": "second compound 0.1 µM, first compound 0.0316 µM", "result": 53.2, "unit": "%"}, {"measurement": "viability, T/C", "setting": "second compound 0.1 µM, first compound 0.1 µM", "result": 48.3, "unit": "%"}, {"measurement": "viability, T/C", "setting": "second compound 0.1 µM, first compound 0.316 µM", "result": 17.5, "unit": "%"}, {"measurement": "viability, T/C", "setting": "second compound 0.1 µM, first compound 1 µM", "result": 13.3, "unit": "%"}, {"measurement": "viability, T/C", "setting": "second compound 0.1 µM, first compound 3.16 µM", "result": 9.97, "unit": "%"}, {"measurement": "viability, T/C", "setting": "second compound 0.1 µM, first compound 10 µM", "result": 0.1, "unit": "%"}, {"measurement": "viability, T/C", "setting": "second compound 0.316 µM, first compound 0.0316 µM", "result": 56.5, "unit": "%"}, {"measurement": "viability, T/C", "setting": "second compound 0.316 µM, first compound 0.1 µM", "result": 44, "unit": "%"}, {"measurement": "viability, T/C", "setting": "second compound 0.316 µM, first compound 0.316 µM", "result": 19.4, "unit": "%"}, {"measurement": "viability, T/C", "setting": "second compound 0.316 µM, first compound 1 µM", "result": 13.9, "unit": "%"}, {"measurement": "viability, T/C", "setting": "second compound 0.316 µM, first compound 3.16 µM", "result": 11.6, "unit": "%"}, {"measurement": "viability, T/C", "setting": "second compound 0.316 µM, first compound 10 µM", "result": 0.16, "unit": "%"}, {"measurement": "viability, T/C", "setting": "second compound 1 µM, first compound 0.0316 µM", "result": 46.3, "unit": "%"}, {"measurement": "viability, T/C", "setting": "second compound 1 µM, first compound 0.1 µM", "result": 38.9, "unit": "%"}, {"measurement": "viability, T/C", "setting": "second compound 1 µM, first compound 0.316 µM", "result": 28, "unit": "%"}, {"measurement": "viability, T/C", "setting": "second compound 1 µM, first compound 1 µM", "result": 17.2, "unit": "%"}, {"measurement": "viability, T/C", "setting": "second compound 1 µM, first compound 3.16 µM", "result": 12.1, "unit": "%"}, {"measurement": "viability, T/C", "setting": "second compound 1 µM, first compound 10 µM", "result": 0.16, "unit": "%"}]}
